What is called solubility is the dissolved amount per volume that the medium holds. Read a low solubility as little dissolved substance.

The results in this text go back to PMC9014415, “Repositioning of a Diaminothiazole Series Confirmed to Target the Cyclin-Dependent Kinase CRK12 for Use in the Treatment of African Animal Trypanosomiasis” (Journal of Medicinal Chemistry, 2022).

Converted amounts (≈) assume the structure as drawn. Marks after values point to notes of the source that are not given here.

A short description of data set [1]: Mouse liver microsome stability. It is filed as in vitro ADME. The settings on record: intrinsic clearance. As for the experimental part: solubility method,5 the long shaking times appear to give solubility values that more closely reflect those made from solid samples (unpublished in-house data).
2.2 Microsomal stability studies
(a) Mouse liver microsome stability. These methods have been previously reported.6
(b) Bovine liver microsome stability. Test compounds (0.5 µM) were incubated with 0.5 mg/mL bovine liver microsomes (Xenotech LLC TM) in 50 mM potassium phosphate buffer, pH7.4 and the reaction initiated upon addition of excess NADPH (8 mg/mL in 50 mM potassium phosphate buffer, pH7.4).
Aliquots (50 µL) of the incubation mixture were taken at time zero, 3, 6, 9, 15 and 30 min then mixed with acetonitrile (100 µL) to stop the reaction. An internal standard was added to all samples, prior to centrifugation (10 min, 1,665 g, RT) to sediment precipitated protein. Reaction plates were then sealed prior to UPLCMSMS analysis using a Quattro Premier XE (Waters corporation, USA).
XLfit (IDBS, UK) was used to calculate the exponential decay and consequently the rate constant (k) from the ratio of peak area of test compound to internal standard at each timepoint. The rate of intrinsic clearance (CLi) of each test compound was then calculated using the following […]
CLi(mL/min/g liver) = k x V x microsomal protein yield […]

A short description of data set [2]: Solubility of compound 1 in PBS pH 7.4 (filtration, UHPLC). It is filed as physicochemical. The settings on record: phosphate buffered saline; aqueous; PBS pH 7.4, 24 h mixing, UHPLC (method used for compound 1). The protocol:
software. All experiments were conducted with technical duplicates and at least three biological […]
1.4 Cytotoxicity assays – Rat skeletal myoblasts (L6)
The cytotoxicity of test compounds was evaluated using a rat skeletal myoblast (L6) cell line, as previously described3, but with minor modifications. Cells were grown in RPMI media supplemented with 10% (v/v) fetal calf serum. L6 cells at a seeding density of 2 x 10^4 cells/mL were incubated in microtiter plates overnight at 37 °C and 5 % CO2 until adherent. The following day, test compounds were added to the plates (3-fold serial dilutions), prior to incubation for 69 h. […] The plates were read using a SpectraMax (Gemini XS) fluorescence reader at an excitation wavelength of 536 nm and an emission wavelength of 588 nm. EC50 values were determined using SOFTmax Pro 5.2 analysis software. […]
The aqueous solubility of test compounds was measured using laser nephelometry. […] Triplicate aliquots were transferred to a flat-bottomed polystyrene plate which was immediately read on a NEPHELOstar nephelometer (BMG Lab Technologies). […]
Solubility of compound 1 was measured by a different method. […]
solution was then mixed for 24 h (rotary mixing, 900 rpm, 25°C) excluding light. […] The resulting filtrate was analysed for dissolved compound 1 using a truncated UHPLC methodology. […]

Data set [3] deals with T. vivax. As to the kind of experiment: Cattle efficacy for compound 2, intramuscular (CIRDES), T. vivax. It is filed as in vivo, Trypanosoma vivax. As for the experimental part: Compound 2 was progressed into IM efficacy studies dosing at 10 mg/kg either once or twice, 15 h apart, in cattle infected with T. congolense or T. vivax. […]
3.5 Cattle efficacy for compound 2, intramuscular (CIRDES)
Felani-zebu cattle were housed in a fly-proof facility, acclimatised for 15 d prior to the study, cattle were treated with an anthelmintic, an ectoparasiticide and an antibiotic. Donor animals were infected with stabilates (frozen stocks) of either T. congolense KOT256 (resistant to 7 mg/kg diminazene in cattle) or T. vivax Gando Bongaly (resistant to diminazene 7 mg/kg and to isometamidium 1 mg/kg […]
in cattle). Blood from the donor animals, diluted with phosphate buffered glucose was used to infect recipient animals IV via the jugular vein. Infection was with approximately 100,000 fresh viable parasites. The compounds were given IM. Each injection was up to 10 mL and given in neck in the following order: left anterior third, right anterior third, left posterior third and right posterior third.
Animals over 240 kg required a fifth injection site for the IVP, and this was given in the left or right hind leg. Cattle were randomised to treatments. Parasitaemia was monitored 3 times per calendar week, though collection of blood and assessment of clinical symptoms. Blood samples were also […]
treatment). […]

`CC(C)CS(=O)(=O)N[C@H]1CC[C@H](Nc2nc(N)c(C(=O)c3c(F)cccc3F)s2)CC1` [Compound 1, N-((trans)-4-((4-Amino-5-(2,6-difluorobenzoyl)thiazol-2-yl)amino)cyclohexyl)-2-methylpropane-1-sulfonamide]: in data set [1], the “Mouse Microsome Cli” value came to 11 mL/min/g. The molecule further registered a solubility at 24 h in data set [2] of 105 µM (≈ 49.6 µg/mL).
Turning to `CC(C)CS(=O)(=O)N[C@H]1CC[C@H](Nc2nc(N)c(C(=O)c3c(F)cc(CN(C)C)cc3F)s2)CC1` [Compound 2, N-(trans)-[4-[[4-Amino-5-[4-(dimethylaminomethyl)-2,6-difluoro-benzoyl]thiazol-2-yl]amino]cyclohexyl]-2-methyl-propane-1-sulfonamide], the efficacy in data set [3] (T5, 10 mg/kg IM once) was 0/5 ^a; in data set [3] (T6, 10 mg/kg IM twice, 15 h apart), 0/3 ^a; in data set [3] (T9, saline twice, followed by compound 2 rescue dose twice IM 4 days later) it was 0/2 ^a. Also, the “Efficacy, individual animals” value in data set [3] (T5 dosed once IM, animals 1907, 1918, 1932, 1933, 1940) was “No”; in data set [3] (T6 dosed twice IM, animals 1902, 1926, 1929), “No”; in data set [3] (T9 after 2 (rescue IM), animals 1931, 1934), “No and no”. Besides, the Cattle cured result in data set [3] (T. vivax-infected cattle, 10 mg/kg IM once or twice, 10 mg/kg) was “none and not cured”.
